Tests used:
[1] = Triplet excited state energy from phosphorescence of Gd complexes at 77K; format: physicochemical; details: solid matrix (methanol/ethanol 1/4), using the Gd complexes
Experimental: Estimation of the energies of the ligand based triplet excited state were determined using the Gd(III) complexes. Gadolinium was chosen because it is a 4f^7 lanthanide cation having a similar 4f electronic configuration and size as the europium cation (4f^6), but lacking an accessible metal based low energy electronic excited state. At room temperature, only a broad weak emission centered between 380-400 nm can be seen for the Gd(III) complexes. […] At 77K, in solid matrix, an emission band at approx. 500 nm can be seen (FIG. 8). This emission, red-shifted compared to the singlet excited state, can be assigned to phosphorescence from the triplet excited state, lower in energy than the singlet excited state observed at room temperature. Selective time gated phosphorescence spectra (delay 0.1 ms) of the gadolinium complexes at 77K are depicted in FIG. 8.

[2] = Stability titration (pEu) by competitive batch titration using DTPA; format: physicochemical; details: for pEu: competitive batch titration using DTPA in 0.1M TRIS pH = 7.4 and 0.1M KCl; for pEu value as compared to DTPA / thermodynamic stability in aqueous solution: in words; for thermodynamic stability in aqueous solution: pH=7.4
Experimental: Stability Titrations. The general procedure used to determine the pEu values of ligands was adapted from an already described study using Gd and are similar to that already reported for other complexes. Different volumes of a standardized DTPA stock solution were added to solutions of constant ligand, metal, and electrolyte concentrations. Concentrations of complexed ligand in each solution were determined by subtracting the remaining luminescence intensity after addition of DTPA to the initial luminescence intensity at identical pH and those concentrations were used as references for the analysis. Stability of compounds towards mM concentrations of EDTA and divalent cations will be assessed by incubation of the proposed molecules at nM concentration at room temperature in aqueous solutions of test ions. Time Resolved Fluorescent signal will be assessed at the outset of experiment and monitored over a minimum of 24 hours to determine signal change.

[3] = UV/visible absorption spectroscopy of Eu(III) complexes in TRIS buffer; format: physicochemical; details: for λ: absorption maximum
Text: Extinction Coefficient. A series of solutions of varied concentrations will be prepared from the solids based on mass and purity. The absorbance of each of these solutions at both 340 nm and at the appropriate acceptor wavelength will be measured and plotted according to Beer's Law (A=εcL where A is absorbance, ε is the extinction coefficient in M^−1 cm^−1, c is concentration, and L is path length in cm) with the fitted linear regression slope equal to […] on a plot of A as a function of C.
Each of the spectra have absorption maxima around 335-340 nm (FIG. 2). Those bands are composed of two electronic transitions; at higher energy, a purely π-π* transition and, at slightly lower energy (around ca. 320 nm), a π-π* transition with some n-π* character, as evidenced previously from TD-DFT calculations. […] This interaction gives maxima blue-shifting from 341 nm for [Eu(H(2,2)-1,2-HOPO)]^0 to 334 nm for [Eu(H(17O5,2)-1,2-HOPO)]^0 (as low as 332 nm for)[Eu(5LIN^Me-1,2HOPO)2]^0).

[4] = Luminescence quantum yield, emission and brightness in aqueous 0.1 M TRIS buffer; format: physicochemical; details: for øTot: 0.1M TRIS buffer pH = 7.4; for Brightness: at maximum absorption, product of quantum yield and molar absorption coefficient, 0.1 M TRIS pH = 7.4; for overall quantum yield (in words): related to inner-sphere coordinated water
Experimental: Quantum Yield. Quantum yield will be measured using established methods. Fluorescence quantum yield Q are measured in diluted solution with an optical density lower than 0.1 using the following equation Qx/Qr=[Ar(λr)/Ax(λx)][nx^2/nr^2][Dx/Dr] were A is the absorbance at the excitation wavelength (λ), n the refractive index and D the integrated luminescence intensity. Subscripts “r” and “x” stand for reference and sample, respectively. References will be a quinine bisulfate in 1N sulfuric acid in aqueous solution (Qt=0.546)^1 and Ru(bpy)3 2C1 complexes in water solution (Qr=0.028)^2 for all complexes. A plot of integrated emission intensity (i.e. Dr) versus absorbance (i.e. Ar(λr)) yields a linear plot with a slope which can be equated to the reference quantum yield Qr. By analogy, for the unknown sample, a plot of integrated emission intensity (i.e. Dx) versus absorbance (i.e. Ax(λx)) yields a linear plot and Qx can then be evaluated. A minimum of at least two independent measurements will be averaged to derive a reliable value.

[5] = Luminescence lifetimes (TRIS buffer, deuterated water, 77K) and inner sphere water number q; details: for τ^D / τ (77K): first component; for q / q, second species: inner sphere water molecules; for q: first species
Experimental: Fluorescent decay signals can be acquired using an IBH DataStation Hub photon counting module and data analysis performed using the commercially available DAS 6 decay analysis software package from HORIBA Jobin Yvon IBH. Goodness of fit will be assessed by minimizing the reduced chi squared function, χ2, and a visual inspection of the weighted residuals. Each trace will use at least 10,000 points and the reported lifetime values result from at least three independent measurements.
In addition to the steady state emission spectra, the luminescence quantum yields and luminescence lifetimes of the Eu(III) complexes were also measured in aqueous solution with 0.1 M TRIS buffer pH=7.4 and in deuterated solution to estimate the number of inner sphere water molecule (i.e. q) using the improved Horrock's equations.
Luminescence lifetimes were also determined at 77K, in a solid matrix (Table 5), which have allowed us to determine whether back energy transfer between the donor triplet excited state and the acceptor manifold excited state of the lanthanide is present, or alternately whether quenching via low lying LMCT state occurs.

[6] = Calculation of Eu luminescence parameters (radiative lifetime, rate constants, efficiencies); format: physicochemical; details: for η^Eu: efficiency of metal centred luminescence; for knr: non-radiative rate constant; for τrad: pure radiative luminescence lifetime, aqueous TRIS pH = 7.4; for kr: radiative rate constant; for η^sens: sensitization efficiency; for metal centred efficiency: TRIS buffer
Experimental: In this equation, the ηISC ηET term is termed the sensitization efficiency, ηsens (ηsens=ηISC ηET). All the luminescence parameters τR (the pure radiative luminescence lifetime), kR and knR (the radiative and non-radiative constant rate) can be deduced. These parameters were calculated for five of the octadentate complexes and the model complex that present only one species in solution at pH=7.4 and are reported in Table 6.

[7] = extinction coefficient, in M-1·cm-1
[8] = solid matrix at 77K (methanol/ethanol 1/4)
[9] = aqueous TRIS pH = 7.4, complexes with only one species

Row | SMILES | T0-0 (triplet excited state energy) [1] | pEu [2] | pEu value as compared to DTPA [2] | ε ([3]; TRIS buffer pH = 7.4) | λ^maxabs ([3]; TRIS buffer pH = 7.4) [nm] | λ [3] [nm] | ε [3, 7] | øTot [4] | ϕTot ([4]; aqueous quantum yield) | Brightness [4] [M⁻¹ cm⁻¹] | τ^D ([5]; deuterated solution) | q ([5]; improved Horrock's equations) | τ (77K) [5, 8] | η^Eu [6] | knr [6] [s⁻¹] | τrad [6] [μs] | kr [6] [s⁻¹] | η^sens [6] | ϕTot [4, 9] | τ ([5]; aqueous TRIS pH = 7.4) [μs] | other results
1 | O=C(NCCN(CCNC(=O)c1cccc(=O)n1O)CCOCCN(CCNC(=O)c1cccc(=O)n1O)CCNC(=O)c1cccc(=O)n1O)c1cccc(=O)n1O.[Eu] [Eu(H5-1)] | 22,000 cm^−1 | 19.2 | increased | 15,900 M^−1 · cm^−1 | 337 | 337 | 15,900 | 0.067 | 0.067 | 1065 | 825; μs | 0; | 823; μs |  |  |  |  |  |  |  | overall quantum yield (in words) [4]: low quantum yields; τ^D, second component ([5]; deuterated solution, second component): 462 μs; τ^D ([5]; deuterated water): 825 μs; τ^D, second component ([5]; deuterated water, second component): 438 μs; τ ([5]; first (longer) component): 651 μs; q [5]: 0; q, second species [5]: 0.8; q, second species ([5]; listed as [Eu(H(5O,2)-1,2HOPO)]^0): 1.1; τ, second component ([5]; second (shorter) component): 304 μs; τ (77K), second component ([5]; solid matrix at 77K (methanol/ethanol 1/4), second component): 608 μs
2 | O=C(NCCN(CCNC(=O)c1cccc(=O)n1O)CCOCCOCCN(CCNC(=O)c1cccc(=O)n1O)CCNC(=O)c1cccc(=O)n1O)c1cccc(=O)n1O [Eu(H8-2)] | 22,320 cm^−1 | 20.4 | increased | 15,350 M^−1 · cm^−1 | 336 | 336 | 15,350 | 0.112 | 0.112 | 1720 | 913 μs | 0 | 748 μs | 0.395 | 869 | 1770 | 566 | 0.284 | 0.112 | 697 | sensitization process efficiency [6]: 28.4%; overall quantum yield (in words) [4]: comparatively high quantum yields; τ^D ([5]; deuterated water): 913 μs; τ ([5]; first (longer) component): 697 μs
3 | O=C(NCCN(CCNC(=O)c1cccc(=O)n1O)CCOCCOCCOCCOCCN(CCNC(=O)c1cccc(=O)n1O)CCNC(=O)c1cccc(=O)n1O)c1cccc(=O)n1O.[Eu] [[Eu(H(14O4,2)-1,2HOPO)]^0] | 22,020 cm^−1 |  |  | 15,200 M^−1 · cm^−1 | 336 |  |  | 0.192 |  | 2920 | 961 μs | 0.1 | 819 μs | 0.528 | 674 | 1326 | 754 | 0.364 | 0.192 | 700 | thermodynamic stability in aqueous solution [2]: high thermodynamic stabilities; metal centred efficiency [6]: around 50%
4 | O=C(NCCN(CCNC(=O)c1cccc(=O)n1O)CCOCCOCCOCCOCCOCCN(CCNC(=O)c1cccc(=O)n1O)CCNC(=O)c1cccc(=O)n1O)c1cccc(=O)n1O.[Eu] [[Eu(H(17O5,2)-1,2HOPO)]^0] | 21,690 cm^−1 |  |  | 15,000 M^−1 · cm^−1 | 336 |  |  | 0.196 |  | 2940 | 962 μs | 0.1 | 826 μs | 0.522 | 679 | 1348 | 742 | 0.375 | 0.196 | 704 | thermodynamic stability in aqueous solution [2]: high thermodynamic stabilities; metal centred efficiency [6]: around 50%; λ^maxabs ([3]; TRIS buffer pH = 7.4, listed as [Eu(H(17O5,2)-1,2-HOPO)]^0): 334 nm; øTot ([4]; listed as [Eu(H(17O5,2)-1,2-HOPO)]^0): 0.197

— patent publication US10352938B2, “Macrocyclic HOPO chelators” (LUMIPHORE, INC., priority 2009, dated 2019)
